Data: patent publication US11814364B2, “Pyridine N-oxide derivatives useful as factor XIa inhibitors” (Janssen Pharmaceutica NV, priority 2021, dated 2023)

What follows are molecules tested against human plasma kallikrein (Homo sapiens, UniProt P03952) (assay: Kallikrein inhibition FLINT assay with quenched AMC peptide substrate Z-Gly-Pro-Arg-AMC (end point EP or kinetic KIN reads)). Settings: kinetic reads at 5 min intervals over 30 min; read-out: Kallikrein (KIN) IC50.
Assay type: biochemical
Procedure, shortened: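 Enzyme and compound were preincubated 30 min before adding 50 μM AMC substrate in pH 7.5 Tris/NaCl/CaCl2/BSA/CHAPS buffer. AMC release was read at 30 min endpoint or every 5 min.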

Chain of human plasma kallikrein (P03952 391-638 limits assumed): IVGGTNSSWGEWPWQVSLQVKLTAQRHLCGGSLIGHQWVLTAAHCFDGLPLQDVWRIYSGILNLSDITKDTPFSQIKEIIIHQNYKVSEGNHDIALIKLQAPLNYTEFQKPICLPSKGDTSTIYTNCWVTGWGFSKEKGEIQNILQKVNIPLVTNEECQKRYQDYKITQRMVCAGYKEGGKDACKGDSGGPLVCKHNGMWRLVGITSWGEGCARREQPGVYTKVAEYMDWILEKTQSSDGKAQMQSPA
Chain of human plasma kallikrein (P03952 20-390 partner limits assumed): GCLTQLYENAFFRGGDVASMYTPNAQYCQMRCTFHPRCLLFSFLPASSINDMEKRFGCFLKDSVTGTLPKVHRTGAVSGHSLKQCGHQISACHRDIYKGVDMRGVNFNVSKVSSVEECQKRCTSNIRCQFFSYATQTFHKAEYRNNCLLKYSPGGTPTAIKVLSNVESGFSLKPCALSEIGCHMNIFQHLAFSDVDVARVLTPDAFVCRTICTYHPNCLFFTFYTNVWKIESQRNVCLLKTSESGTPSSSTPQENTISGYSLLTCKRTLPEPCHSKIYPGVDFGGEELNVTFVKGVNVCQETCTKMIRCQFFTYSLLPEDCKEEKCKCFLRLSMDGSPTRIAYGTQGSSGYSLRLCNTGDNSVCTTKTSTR

SMILES | IC50
O=C(c1cnn(CC(c2ccc(-c3c(-n4cnnn4)ccc(Cl)c3F)c[n+]2[O-])n2cc(-c3ccnc(C(F)(F)F)c3)cn2)c1)N1CCCCC1 (single isomer, unassigned) [Example P411] | 16 nM
Cn1ncc2cc(-c3cnn(C(CC4CC4)c4ccc(-c5c(-n6cnnn6)ccc(Cl)c5F)c[n+]4[O-])c3)ccc21 (centres unmarked) [Example P265] | 88.1 nM
Nc1ncc(-c2cnn([C@H](CC3CC3)c3ccc(-c4c(-n5cnnn5)ccc(Cl)c4F)c[n+]3[O-])c2)s1 [Example P614] | 8 nM
NC(=O)c1ccc(-c2cnn(C(CCOC(F)F)c3ccc(-c4c(-n5cnnn5)ccc(Cl)c4F)c[n+]3[O-])c2)cc1F (single isomer, unassigned) [Example P929] | 5.8 nM
[O-][n+]1cc(-c2c(-n3cnnn3)ccc(Cl)c2F)ccc1C(Cn1cc(F)cn1)n1cc(-c2cc(C(F)(F)F)ncn2)cn1 (centres unmarked) [Example P468] | 159 nM
NC(=O)c1ccc(-c2cnn(C(Cc3ccn(C(F)F)n3)c3ccc(-c4c(-n5cc(Cl)nn5)ccc(Cl)c4F)c[n+]3[O-])c2)cc1 (single isomer, unassigned) [Example P911] | 0.2 nM
NC(=O)c1ccc(-c2cnn(C(CC3CC3)c3ccc(-c4c(-n5cnnn5)ccc(Cl)c4F)c[n+]3[O-])c2)cc1F (single isomer, unassigned) [Example P946] | 834 nM
[O-][n+]1cc(-c2c(-n3cnnn3)ccc(Cl)c2F)ccc1C(Cc1ccc(F)cc1)n1cc(-c2cnn(C(F)F)n2)cn1 (single isomer, unassigned) [Example P598] | 862 nM
[O-][n+]1cc(-c2c(-n3cnnn3)ccc(Cl)c2F)ccc1[C@H](Cn1ccc(OC(F)F)n1)n1cc(-c2ccnc(C(F)(F)F)c2)cn1 [Example P534] | 93.1 nM
CN(CC(c1ccc(-c2c(-n3cnnn3)ccc(Cl)c2F)c[n+]1[O-])n1cc(-c2ccnc(C(F)(F)F)c2)cn1)C(=O)C1CCOCC1 (centres unmarked) [Example P407] | 109 nM
O=C1CCCN1CC(c1ccc(-c2c(-n3cnnn3)ccc(Cl)c2F)c[n+]1[O-])n1cc(-c2ccnc(C(F)(F)F)c2)cn1 (single isomer, unassigned) [Example P364] | 13.5 nM
[O-][n+]1cc(-c2cc(Cl)ccc2-n2cnnn2)ccc1C(Cn1cc(C(F)(F)F)cn1)n1cc(-c2ccnc(F)c2)cn1 (centres unmarked) [Example P321] | 94.9 nM
[O-][n+]1cc(-c2c(-n3cnnn3)ccc(Cl)c2F)ccc1[C@@H](CCOC(F)F)n1cc(-c2ccnn2C(F)F)cn1 [Example P564] | 5.6 nM
NC(=O)c1ccc(-c2cnn(C(CC3CC3)c3ccc(-c4c(-n5cc(C(F)(F)F)nn5)ccc(Cl)c4F)c[n+]3[O-])c2)s1 (centres unmarked) [Example P904] | 123 nM
[O-][n+]1cc(-c2c(-n3cnnn3)ccc(Cl)c2F)ccc1C(CC1CC1)n1cc(-c2cnco2)cn1 (centres unmarked) [Example P455] | 496 nM
Cn1ncc(-c2cnn(C(CC3CC3)c3cc(Cl)c(-c4c(-n5cnnn5)ccc(Cl)c4F)c[n+]3[O-])c2)cc1=O (single isomer, unassigned) [Example P190] | 49.2 nM
NC(=O)Cc1ccnn1CC(c1ccc(-c2c(-n3cnnn3)ccc(Cl)c2F)c[n+]1[O-])n1cc(-c2ccnc(C(F)(F)F)c2)cn1 (centres unmarked) [Example P470] | 99.5 nM
Cn1ccc(CC(c2ccc(-c3c(-n4cnnn4)ccc(Cl)c3F)c[n+]2[O-])n2cc(-c3ccnc(C(F)(F)F)c3)cn2)n1 (centres unmarked) [Example P377] | 2.1 nM
COc1cc(C(Cc2ccn(C(F)F)n2)n2cc(-c3ccc(C(N)=O)c(F)c3)cn2)[n+]([O-])cc1-c1cc(Cl)ccc1C(C)=O (single isomer, unassigned) [Example Q77] | 9.8 nM
Cn1cc(-c2cnn(C(CC3CC3)c3ccc(-c4c(-n5cnnn5)ccc(Cl)c4F)c[n+]3[O-])c2)cn1 (centres unmarked) [Example P288] | 841 nM
CCOCCC(c1ccc(-c2c(-n3cnnn3)ccc(Cl)c2F)c[n+]1[O-])n1cc(-c2ccc(NC(=O)OC)cc2)cn1 (centres unmarked) [Example P204] | 45.1 nM
COCC(=O)N(C)CC(c1ccc(-c2c(-n3cnnn3)ccc(Cl)c2F)c[n+]1[O-])n1cc(-c2ccnc(C(F)(F)F)c2)cn1 (centres unmarked) [Example P427] | 66.8 nM
Cn1cc(-c2cnn([C@H](CCOC(F)F)c3ccc(-c4c(-n5cc(C(F)(F)F)nn5)ccc(Cl)c4F)c[n+]3[O-])c2)nn1 [Example P760] | 454 nM
O=C(O)c1ccc(-c2cnn([C@H](CCOC(F)F)c3ccc(-c4c(C(F)F)ccc(Cl)c4F)c[n+]3[O-])c2)cc1 [Example Q35] | 4 nM
CN(CC(c1ccc(-c2c(-n3cnnn3)ccc(Cl)c2F)c[n+]1[O-])n1cc(-c2ccnc(F)c2)cn1)C(=O)OC(C)(C)C (single isomer, unassigned) [Example P354] | 38.8 nM
COc1cc(C(CC2CC2)n2cc(-c3ccc(N)nc3F)cn2)[n+]([O-])cc1-c1c(-n2cnnn2)ccc(Cl)c1F (centres unmarked) [Example P85] | 4.1 nM
O=C(O)c1ccc(-c2cnn(C(Cc3ccccc3)c3ccc(-c4c(OCC(F)(F)F)ccc(Cl)c4F)c[n+]3[O-])c2)cc1 (centres unmarked) [Example Q4] | 265 nM

SMILES | IC50
[O-][n+]1cc(-c2c(-n3cc(Cl)nn3)ccc(Cl)c2F)ccc1C(Cn1cccn1)n1cc(-c2cn(C(F)F)nn2)cn1 (single isomer, unassigned) [Example P664] | 380 nM
Cn1cnc(Cl)c1-c1cnn([C@H](CC2CC2)c2ccc(-c3c(-n4cnnn4)ccc(Cl)c3F)c[n+]2[O-])c1 [Example P848] | 185 nM
CC(C)Oc1cc(C(CC2CC2)n2cc(-c3cnn(C)c(=O)c3)cn2)[n+]([O-])cc1-c1c(-n2cnnn2)ccc(Cl)c1F (centres unmarked) [Example P146] | 571 nM
COCc1ccn(CC(c2ccc(-c3c(-n4cnnn4)ccc(Cl)c3F)c[n+]2[O-])n2cc(-c3ccnc(C(F)(F)F)c3)cn2)n1 (single isomer, unassigned) [Example P440] | 70.2 nM
[2H]C([2H])([2H])n1ncc(NC(=O)C2CC2)c1-c1cnn(C(CCOC(F)F)c2ccc(-c3c(-n4cc(Cl)nn4)ccc(Cl)c3F)c[n+]2[O-])c1 (single isomer, unassigned) [Example P810] | ~383 nM
Cn1nncc1-c1cnn([C@H](Cn2cc(F)cn2)c2ccc(-c3c(-n4cc(Cl)nn4)ccc(Cl)c3F)c[n+]2[O-])c1 [Example P537] | 96.7 nM
N#Cc1cc(-c2cnn(C(Cn3ccccc3=O)c3ccc(-c4c(-n5cnnn5)ccc(Cl)c4F)c[n+]3[O-])c2)ccn1 (centres unmarked) [Example P459] | 105 nM
[O-][n+]1cc(-c2c(-n3cnnn3)ccc(Cl)c2F)ccc1C(CC1CC1)n1cc(-c2ccnc(OC(F)F)c2)cn1 (centres unmarked) [Example P313] | 151 nM
[2H]C([2H])([2H])OCCC(c1ccc(-c2c(-n3cnnn3)ccc(Cl)c2F)c[n+]1[O-])n1cc(-c2ccnc(C(F)(F)F)c2)cn1 (single isomer, unassigned) [Example P386] | 39.8 nM
NC(=O)c1ccc(-c2cnn(C(CC3CC3)c3ccc(-c4c(-n5cnnn5)ccc(Cl)c4F)c[n+]3[O-])c2)cc1F (single isomer, unassigned) [Example P947] | 14.5 nM
O=C(C1CC1CC(c1ccc(-c2c(-n3cnnn3)ccc(Cl)c2F)c[n+]1[O-])n1cc(-c2ccncc2)cn1)N1CCCC1 (centres unmarked) [Example P266] | 197 nM
NC(=O)c1ccc(-c2cnn(C(Cc3ccn(C(F)F)n3)c3ccc(-c4c(-n5cc(Cl)nn5)ccc(Cl)c4F)c[n+]3[O-])c2)cc1F (single isomer, unassigned) [Example P893] | 20.5 nM
O=C(O)c1ccc(-c2cnn(C(Cc3ccn(C(F)F)n3)c3ccc(-c4c(-n5cc(C(F)(F)F)nn5)ccc(Cl)c4F)c[n+]3[O-])c2)cc1F (single isomer, unassigned) [Example P931] | 2.5 nM
[O-][n+]1cc(-c2c(-n3cnnn3)ccc(Cl)c2F)ccc1C(Cc1ccc(F)cc1)n1cc(-c2nnn(C(F)F)c2Cl)cn1 (centres unmarked) [Example P610] | 582 nM
[O-][n+]1cc(-c2c(-n3cnnn3)ccc(Cl)c2F)ccc1[C@@H](CCOC(F)F)n1cc(-c2ccn(C(F)F)n2)cn1 [Example P563] | 25 nM
CCC(c1cc(OC)c(-c2cc(Cl)ccc2-n2cc(C(F)(F)F)nn2)c[n+]1[O-])n1cc(-c2ncnn2C)cn1 (single isomer, unassigned) [Example P922] | 54.9 nM
COC(=O)Nc1ccc(-c2cnn(C(Cc3ccn(C)n3)c3ccc(-c4c(-n5cnnn5)ccc(Cl)c4F)c[n+]3[O-])c2)cc1 (racemic) [Example P327] | 29.1 nM
COCc1ccn(CC(c2ccc(-c3c(-n4cnnn4)ccc(Cl)c3F)c[n+]2[O-])n2cc(-c3ccnc(C(F)(F)F)c3)cn2)n1 (single isomer, unassigned) [Example P441] | 3.2 nM
NC(=O)c1ccc(-c2cnn(C(Cc3ccn(C(F)F)n3)c3ccc(-c4c(-n5cnnn5)ccc(Cl)c4F)c[n+]3[O-])c2)cc1F (single isomer, unassigned) [Example P932] | 27 nM
O=C(C1CC1CC(c1ccc(-c2c(-n3cnnn3)ccc(Cl)c2F)c[n+]1[O-])n1cc(-c2ccncc2)cn1)N1CCC(c2ccccc2)C1 (centres unmarked) [Example P253] | 159 nM
O=C(O)c1ccc(-c2cnn(C(CCOC(F)F)c3ccc(-c4c(-n5cc(C(F)(F)F)nn5)ccc(Cl)c4F)c[n+]3[O-])c2)cc1F (single isomer, unassigned) [Example P887] | 5.8 nM
COc1cc(C(CC2CC2)n2cc(-c3ncnn3C(F)F)cn2)[n+]([O-])cc1-c1cc(Cl)ccc1-n1cnnn1 (single isomer, unassigned) [Example P917] | 3.9 nM
NC(=O)c1ccnn1CC(c1ccc(-c2c(C(F)F)ccc(Cl)c2F)c[n+]1[O-])n1cc(-c2ccnc(C(F)(F)F)c2)cn1 (single isomer, unassigned) [Example Q28] | 94.6 nM
NC(=O)c1ccc(-c2cnn(C(Cc3ccn(C(F)F)n3)c3ccc(-c4c(C(F)F)ccc(Cl)c4F)c[n+]3[O-])c2)cc1F (single isomer, unassigned) [Example Q66] | 477 nM
NC(=O)c1ccc(-c2cnn(C(Cc3ccn(C(F)F)n3)c3ccc(-c4c(C(F)F)ccc(Cl)c4F)c[n+]3[O-])c2)cc1 (single isomer, unassigned) [Example Q69] | 0.8 nM
O=C(O)C1CCN(C(=O)C2CC2CC(c2ccc(-c3c(-n4cnnn4)ccc(Cl)c3F)c[n+]2[O-])n2cc(-c3ccccc3)cn2)CC1 (centres unmarked) [Example P215] | 755 nM
